Laboratory results as given in article PMC11106456, “Increased Vasoactive Intestinal Peptide (VIP) in polycystic ovary syndrome patients undergoing IVF” (Frontiers in Endocrinology, 2024).

Assay: Biological stability of VIP in follicular fluid (ELISA, during defrosting)
Type: in vitro ADME
Settings: human follicular fluid samples from IVF patients, stored at -80°C, measured during defrosting process; read-out sandwich ELISA (450 nm); p<0.05; Supplementary Figure 1
Experimental: FF was obtained after oocyte retrieval during IVF according to the following procedure. The follicular fluid aspirated from each patient was pooled in conical bottomed 15 ml polypropylene tubes and centrifugated at 1000 g for 3 minutes at 21°C. The supernatant was collected, transported to the laboratory and stored at -80°C until further analysis.
The enzyme-linked immunosorbent assay (ELISA) used to quantify VIP in follicular samples was based on the principle of sandwich enzyme immunoassay. The quantification was performed following manufacturer’s protocol of ELISA kit (ELK Biotechnology CO., Ltd). Briefly, the microtiter plate provided has been pre-coated with an antibody specific for VIP. 100 μL of standards and samples were added to the appropriate microtiter plate wells and incubated for 80 minutes at 37°C. After the wash, 100 μl/well of biotin-conjugated antibody solution was added and incubated for 50 minutes at 37°C. […] Next, a final wash was performed and 90 μL of 5-5’-tetramethylbenzidine (TMB) substrate solution was added and the color development was monitored and quantified after the addition of sulfuric acid solution. The absorbance was measured spectrophotometrically at 450 nm by using microplate spectrophotometer (Labsystem Multiskan MS). […] The concentration of VIP in the samples was determined by comparing the optical density of the samples to the standard curve. […]

SMILES: CC[C@H](C)[C@H](NC(=O)[C@H](CO)NC(=O)[C@H](CC(N)=O)NC(=O)[C@H](CC(C)C)NC(=O)[C@H](Cc1ccc(O)cc1)NC(=O)[C@H](CCCCN)NC(=O)[C@H](CCCCN)NC(=O)[C@@H](NC(=O)[C@H](C)NC(=O)[C@H](CCSC)NC(=O)[C@H](CCC(N)=O)NC(=O)[C@H](CCCCN)NC(=O)[C@H](CCCN=C(N)N)NC(=O)[C@H](CC(C)C)NC(=O)[C@H](CCCN=C(N)N)NC(=O)[C@@H](NC(=O)[C@H](Cc1ccc(O)cc1)NC(=O)[C@H](CC(N)=O)NC(=O)[C@H](CC(=O)O)NC(=O)[C@@H](NC(=O)[C@H](Cc1ccccc1)NC(=O)[C@@H](NC(=O)[C@H](C)NC(=O)[C@H](CC(=O)O)NC(=O)[C@H](CO)NC(=O)[C@@H](N)Cc1c[nH]cn1)C(C)C)[C@@H](C)O)[C@@H](C)O)C(C)C)C(=O)N[C@@H](CC(C)C)C(=O)N[C@@H](CC(N)=O)C(N)=O [VIP, Vasoactive intestinal peptide]
- VIP concentration in follicular fluid over time (biological stability): significant reduction
